Measurements taken from patent EP0795549A1, “Bis-aryloxy(amino)-triazinyl-oxy(amino)aryl derivatives, their preparation and their use as antiviral agents” (American Cyanamid Company, priority 1996, dated 1997).

Experiments:
[1] = system: human foreskin fibroblasts (HF); assay: effect on cells: appearance of fixed, crystal violet-stained monolayer (HF); format: cell-based; set-up: key: N, no effect on the appearance of the alcohol-fixed and crystal violet-stained cell monolayer at the indicated compound concentration.; L, lightening of the intensity of staining (compared to controls) of the alcohol-fixed and crystal violet-stained cell monolayer at the indicated compound concentration but not at half that concentration; settings: at 75 µg/ml
RSV (A2) = assay: viral yield reduction (growth inhibition) assay, RSV; format: cell-based, Respiratory Syncitial Virus
Experimental: (§1) The compounds were tested for biological activity using viral yield reduction assays. Host cells (indicated as HF for human foreskin fibroblasts and as vero, the commonly used African green monkey cell line, in Tables 1 and 1a) were plated at 4 x 10^4 cells/well in cell growth medium with 2% fetal bovine serum or 2% calf serum in 96-well plates (0.1 ml/well) and incubated overnight. The compounds were added to individual wells to give final concentrations ranging from 50 to 0.1 µg/ml in two-fold concentration steps. After 1 hour, virus was added, and the incubation was continued for 4 days with RSV or CMV and for 2 days with HSV. At the end of the experiment, the amount of virus growth was quantitated and the yield reduction at various concentrations of compound was calculated. This allows estimation of the concentration of compound giving 50% reduction in virus growth (IC50).

HSV1 (Patton) [2] = assay: viral yield reduction (growth inhibition) assay, HSV; format: cell-based, Herpes Simplex Virus; settings: for Antiviral IC50 µg/ml HSV Vero: Table 1a, HSV1 (Patton), format not given
Experimental: as §1

vero cells = assay: effect on cells: appearance of fixed, crystal violet-stained monolayer (vero); format: cell-based, African green monkey; set-up: key: N, no effect on the appearance of the alcohol-fixed and crystal violet-stained cell monolayer at the indicated compound concentration.; L, lightening of the intensity of staining (compared to controls) of the alcohol-fixed and crystal violet-stained cell monolayer at the indicated compound concentration but not at half that concentration; settings: at 75 µg/ml
CMV (Ad169) = assay: viral yield reduction (growth inhibition) assay, CMV; format: cell-based, Cytomegalovirus; settings: HF, format not given; for Antiviral IC50 µg/ml CMV /HF: Table 1a
Experimental: as §1

HSV1 (Patton) [3] = assay: viral plaque reduction assay, HSV1; format: cell-based, Herpes Simplex Virus; settings: HSV1 (Patton), vero host cells
[4] = Table 1a, HF, yield reduction or plaque format not specified

Molecule | Effect on cells @ µg/ml indicated HF [1] | Antiviral IC50 µg/ml RSV/ HF (RSV (A2); [4]) [µg/mL] | Antiviral IC50 µg/ml RSV/ Vero (RSV (A2); Table 1a, vero, format not given) [µg/mL] | Antiviral IC50 µg/ml HSV Vero (HSV1 (Patton) [2]) [µg/mL] | Effect on cells @ µg/ml indicated Vero (vero cells) | Antiviral IC50 µg/ml CMV /HF (CMV (Ad169)) [µg/mL] | IC50µG/mL IN PLAQUE ASSAY HSV/ VER O (HSV1 (Patton) [3]) [µg/mL] | IC50 µG/mL IN GROWTH […]/ VERO (RSV (A2); vero host cells) [µg/mL] | IC50 (RSV (A2); human respiratory syncytial virus, Table 1a, HF, yield reduction or plaque format not specified, read-out: Antiviral IC50 µg/ml RSV/ HF) [µg/mL] | IC50 (CMV (Ad169); Human betaherpesvirus 5, Table 1a, read-out: Antiviral IC50 µg/ml CMV /HF) [µg/mL] | IC50 (HSV1 (Patton) [2]; Human alphaherpesvirus 1, Vero, read-out: Antiviral IC50 µg/ml HSV Vero) [µg/mL]
4',4-Bis-{4,6-bis-[3-(3,5-dicarbamoyl-piperidine-1-sulfonyl)-phenylamino]-[1,3,5]triazin-2-ylamino}-biphenyl-2,2'disulfonic acid, disodium salt [Example 53] | N@75 | 2 | 7 | >50 | N@75 | – | – | – | – | – | –
4',4-Bis-{4,6-bis-[3-(bis-carbamoylmethyl-1-sulfamoyl)-phenylamino]-[1,3,5]triazin-2-ylamino}-biphenyl-2,2'-disulfonic acid, disodium salt [Example 43] | N@75 | 0.1 | – | 6 | N@75 | 2.5 | – | – | – | – | –
4,4'-Bis-[[4,6-bis-[[3-[[bis-[3-(methylamino)-3-oxopropyl]amino]sulfonyl]phenyl]amino]-1,3,5-triazin-2-yl]amino] [1,1'-biphenyl]-2,2'-disulfonic acid, disodium salt [Example 34] | N@75 | 1.2 | – | >50 | L@75 | >50 | – | – | – | – | –
4,4'Bis[4,6-di[3-aminophenyl-N,N-bis(2-hydroxyethyl)sulfonylimino]-1,3,5-triazin-2-ylamino]-stilbene-2,2'-disulfonic acid, disodium salt [Example 5] | – | – | – | – | – | – | 8 | 0.4 | – | – | –
O=C([O-])c1cc(Nc2nc(Nc3cccc(S(=O)(=O)N(CCO)CCO)c3)nc(Nc3cccc(S(=O)(=O)N(CCO)CCO)c3)n2)ccc1-c1ccc(Nc2nc(Nc3cccc(S(=O)(=O)N(CCO)CCO)c3)nc(Nc3cccc(S(=O)(=O)N(CCO)CCO)c3)n2)cc1C(=O)[O-].[Na+].[Na+] [Example 57, 4,4'-Bis-(4,6-bis-{3-[bis-(2-hydroxyethyl)-sulfamoyl]-phenylamino}-[1,3,5]-triazin-2-ylamino)biphenyl-2,2'dicarboxylic acid, disodium salt] | – | – | – | – | N@75 | – | – | – | 1.5 | 4 | 30
